In ChEMBL document CHEMBL1133702:

Each compound was assayed against Estrogen receptor (Ovis aries) (UniProt P49885+Q9TU15).

Compound	RAC app
C[C@]12C[C@H](c3ccc(OCCOS(C)(=O)=O)cc3)[C@@H]3c4ccc(O)cc4CC[C@H]3[C@@H]1CC[C@@H]2O	39.9
C[C@]12C[C@H](c3ccc(OCCI)cc3)[C@@H]3c4ccc(O)cc4CC[C@H]3[C@@H]1CC[C@@H]2O	10.6
CN(CC#Cc1ccc([C@H]2C[C@]3(C)[C@@H](O)CC[C@H]3[C@@H]3CCc4cc(O)ccc4[C@H]32)cc1)C(=O)CCl	19.4
C[C@]12C[C@H](c3ccc(OCCNC(=O)CCl)cc3)[C@@H]3c4ccc(O)cc4CC[C@H]3[C@@H]1CC[C@@H]2O	3.3
C[C@]12C[C@H](c3ccc(C#CCNC(=O)CCl)cc3)[C@@H]3c4ccc(O)cc4CC[C@H]3[C@@H]1CC[C@@H]2O	14.5
C[C@]12C[C@H](c3ccc(OCCCCCI)cc3)[C@@H]3c4ccc(O)cc4CC[C@H]3[C@@H]1CC[C@@H]2O	8.23

More lines, now with the values ahead:

RAC app	Compound
9.7	CN(CCCCCOc1ccc([C@H]2C[C@]3(C)[C@@H](O)CC[C@H]3[C@@H]3CCc4cc(O)ccc4[C@H]32)cc1)C(=O)CBr
4.22	CN(CCOc1ccc([C@H]2C[C@]3(C)[C@@H](O)CC[C@H]3[C@@H]3CCc4cc(O)ccc4[C@H]32)cc1)C(=O)CBr
6.96	CN(CCOc1ccc([C@H]2C[C@]3(C)[C@@H](O)CC[C@H]3[C@@H]3CCc4cc(O)ccc4[C@H]32)cc1)C(=O)CCl
17.1	C[C@]12C[C@H](c3ccc(OCCCCCNC(=O)CBr)cc3)[C@@H]3c4ccc(O)cc4CC[C@H]3[C@@H]1CC[C@@H]2O
